Columns and labels:
[1] = target: T1, Son of sevenless homolog 1 (Homo sapiens) (UniProt Q07889); test: Binding affinity to N-terminal His10-tagged wild-type recombinant human SOS1 catalytic domain (564 to 1049 residues) expressed in Escherichia coli assessed as change in Gibbs free energy by ITC analysis
T1 sequence (whole entry): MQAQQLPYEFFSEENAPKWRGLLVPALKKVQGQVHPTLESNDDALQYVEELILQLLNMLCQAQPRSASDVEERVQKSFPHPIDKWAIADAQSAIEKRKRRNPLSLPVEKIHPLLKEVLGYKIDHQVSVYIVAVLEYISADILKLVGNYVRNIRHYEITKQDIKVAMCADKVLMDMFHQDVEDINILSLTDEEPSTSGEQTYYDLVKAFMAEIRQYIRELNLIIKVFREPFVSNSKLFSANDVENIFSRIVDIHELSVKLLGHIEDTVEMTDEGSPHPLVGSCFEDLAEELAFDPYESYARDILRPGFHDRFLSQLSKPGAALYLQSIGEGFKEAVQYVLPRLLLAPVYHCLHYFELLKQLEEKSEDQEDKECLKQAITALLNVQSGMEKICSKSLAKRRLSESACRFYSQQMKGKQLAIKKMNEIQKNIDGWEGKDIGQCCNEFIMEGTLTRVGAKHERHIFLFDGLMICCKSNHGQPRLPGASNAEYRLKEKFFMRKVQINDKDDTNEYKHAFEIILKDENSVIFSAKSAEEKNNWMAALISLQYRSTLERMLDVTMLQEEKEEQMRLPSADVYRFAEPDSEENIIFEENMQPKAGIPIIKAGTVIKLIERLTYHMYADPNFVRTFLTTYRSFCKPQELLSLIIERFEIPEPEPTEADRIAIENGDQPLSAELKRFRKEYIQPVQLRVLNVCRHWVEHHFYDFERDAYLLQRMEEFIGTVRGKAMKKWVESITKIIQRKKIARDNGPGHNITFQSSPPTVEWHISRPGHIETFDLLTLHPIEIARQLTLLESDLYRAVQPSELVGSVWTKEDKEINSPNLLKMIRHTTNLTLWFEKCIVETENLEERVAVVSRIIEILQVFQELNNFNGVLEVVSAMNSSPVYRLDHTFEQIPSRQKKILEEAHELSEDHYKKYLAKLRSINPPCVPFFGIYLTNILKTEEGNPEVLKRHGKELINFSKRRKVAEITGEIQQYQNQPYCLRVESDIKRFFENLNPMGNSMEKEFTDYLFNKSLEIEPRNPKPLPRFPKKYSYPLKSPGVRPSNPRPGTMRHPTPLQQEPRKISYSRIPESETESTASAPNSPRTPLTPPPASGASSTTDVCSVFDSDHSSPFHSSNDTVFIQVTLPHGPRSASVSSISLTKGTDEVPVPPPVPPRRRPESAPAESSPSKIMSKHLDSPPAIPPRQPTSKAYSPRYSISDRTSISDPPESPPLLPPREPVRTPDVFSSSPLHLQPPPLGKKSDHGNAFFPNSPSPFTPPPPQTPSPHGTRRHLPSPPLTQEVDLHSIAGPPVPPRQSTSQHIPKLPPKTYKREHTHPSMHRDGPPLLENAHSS

[2] = target: T2, Aurora kinase A (Homo sapiens) (UniProt O14965); test: Inhibition of AURKA (unknown origin) assessed as residual activity at 100 nM by KINOMEscan analysis relative to control
T2 sequence (whole entry): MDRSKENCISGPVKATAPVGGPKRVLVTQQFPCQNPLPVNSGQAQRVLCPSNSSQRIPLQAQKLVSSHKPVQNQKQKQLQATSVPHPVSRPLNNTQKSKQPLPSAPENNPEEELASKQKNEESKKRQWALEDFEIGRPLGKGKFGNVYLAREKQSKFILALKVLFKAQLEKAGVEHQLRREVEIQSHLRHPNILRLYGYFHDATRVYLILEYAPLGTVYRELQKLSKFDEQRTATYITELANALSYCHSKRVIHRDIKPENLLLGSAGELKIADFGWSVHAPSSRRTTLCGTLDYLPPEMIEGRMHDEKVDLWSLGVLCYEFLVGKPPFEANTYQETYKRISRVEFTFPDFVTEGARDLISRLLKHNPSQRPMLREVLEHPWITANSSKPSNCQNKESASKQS

[3] = target: Ribosomal protein S6 kinase alpha-1 (Homo sapiens) (UniProt Q15418); test: Inhibition of N-terminal RSK1 kinetic domain 1 (unknown origin) assessed as residual activity at 100 nM by KINOMEscan analysis relative to control
Sequence of Ribosomal protein S6 kinase alpha-1 (Homo sapiens) (Q15418 whole entry, the tested form may be a part): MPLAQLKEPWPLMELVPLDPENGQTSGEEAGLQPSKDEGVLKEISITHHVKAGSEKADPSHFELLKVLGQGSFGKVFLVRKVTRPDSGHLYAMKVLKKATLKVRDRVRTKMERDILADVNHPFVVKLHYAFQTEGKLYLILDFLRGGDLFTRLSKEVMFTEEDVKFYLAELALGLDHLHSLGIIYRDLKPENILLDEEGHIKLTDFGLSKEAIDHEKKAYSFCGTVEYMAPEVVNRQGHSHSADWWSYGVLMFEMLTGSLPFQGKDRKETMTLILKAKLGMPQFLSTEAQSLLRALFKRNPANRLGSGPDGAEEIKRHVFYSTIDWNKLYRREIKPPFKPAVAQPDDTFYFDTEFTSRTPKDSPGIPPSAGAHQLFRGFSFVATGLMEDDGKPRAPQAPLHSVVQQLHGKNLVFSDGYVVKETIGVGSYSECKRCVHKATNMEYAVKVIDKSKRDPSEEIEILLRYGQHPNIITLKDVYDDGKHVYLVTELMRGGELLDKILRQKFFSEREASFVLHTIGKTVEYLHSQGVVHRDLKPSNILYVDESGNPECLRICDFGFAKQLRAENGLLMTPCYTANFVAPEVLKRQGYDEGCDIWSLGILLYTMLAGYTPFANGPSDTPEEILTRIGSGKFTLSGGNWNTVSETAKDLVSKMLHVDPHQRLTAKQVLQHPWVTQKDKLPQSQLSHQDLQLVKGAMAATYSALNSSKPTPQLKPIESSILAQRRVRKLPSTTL

[4] = target: T3, Tyrosine-protein kinase Mer (Homo sapiens) (UniProt Q12866); test: Inhibition of MERTK (unknown origin) assessed as residual activity at 100 nM by KINOMEscan analysis relative to control
T3 sequence (whole entry): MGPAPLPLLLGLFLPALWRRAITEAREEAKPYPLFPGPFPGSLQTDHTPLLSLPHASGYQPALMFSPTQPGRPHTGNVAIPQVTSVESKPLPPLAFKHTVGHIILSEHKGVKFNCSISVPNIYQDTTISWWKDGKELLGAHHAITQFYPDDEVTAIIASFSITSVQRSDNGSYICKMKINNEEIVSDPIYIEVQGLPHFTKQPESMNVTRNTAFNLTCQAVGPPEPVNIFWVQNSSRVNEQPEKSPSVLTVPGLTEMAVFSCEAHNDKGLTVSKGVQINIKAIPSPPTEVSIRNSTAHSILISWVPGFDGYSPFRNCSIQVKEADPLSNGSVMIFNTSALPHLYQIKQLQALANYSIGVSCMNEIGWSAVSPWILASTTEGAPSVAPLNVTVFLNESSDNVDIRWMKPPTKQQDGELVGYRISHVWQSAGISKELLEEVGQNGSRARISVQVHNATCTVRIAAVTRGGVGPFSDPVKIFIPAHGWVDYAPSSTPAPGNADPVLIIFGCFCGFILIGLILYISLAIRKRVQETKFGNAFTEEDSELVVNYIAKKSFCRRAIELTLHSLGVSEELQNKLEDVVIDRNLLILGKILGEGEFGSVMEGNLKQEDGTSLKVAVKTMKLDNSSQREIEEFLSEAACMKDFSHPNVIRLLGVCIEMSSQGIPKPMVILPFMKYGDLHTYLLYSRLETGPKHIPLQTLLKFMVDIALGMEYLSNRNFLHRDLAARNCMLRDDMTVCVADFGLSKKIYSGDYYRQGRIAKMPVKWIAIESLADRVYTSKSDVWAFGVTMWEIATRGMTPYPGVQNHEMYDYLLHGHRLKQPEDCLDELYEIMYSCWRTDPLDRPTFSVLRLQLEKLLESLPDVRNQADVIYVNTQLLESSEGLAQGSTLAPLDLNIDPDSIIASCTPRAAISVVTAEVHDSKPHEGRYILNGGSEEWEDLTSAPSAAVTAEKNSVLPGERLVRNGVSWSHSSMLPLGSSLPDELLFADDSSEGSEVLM

[5] = target: Cyclin-dependent kinase 18 (Homo sapiens) (UniProt Q07002); test: Inhibition of PCTK3 (unknown origin) assessed as residual activity at 100 nM by KINOMEscan analysis relative to control
Sequence of Cyclin-dependent kinase 18 (Homo sapiens) (Q07002 whole entry): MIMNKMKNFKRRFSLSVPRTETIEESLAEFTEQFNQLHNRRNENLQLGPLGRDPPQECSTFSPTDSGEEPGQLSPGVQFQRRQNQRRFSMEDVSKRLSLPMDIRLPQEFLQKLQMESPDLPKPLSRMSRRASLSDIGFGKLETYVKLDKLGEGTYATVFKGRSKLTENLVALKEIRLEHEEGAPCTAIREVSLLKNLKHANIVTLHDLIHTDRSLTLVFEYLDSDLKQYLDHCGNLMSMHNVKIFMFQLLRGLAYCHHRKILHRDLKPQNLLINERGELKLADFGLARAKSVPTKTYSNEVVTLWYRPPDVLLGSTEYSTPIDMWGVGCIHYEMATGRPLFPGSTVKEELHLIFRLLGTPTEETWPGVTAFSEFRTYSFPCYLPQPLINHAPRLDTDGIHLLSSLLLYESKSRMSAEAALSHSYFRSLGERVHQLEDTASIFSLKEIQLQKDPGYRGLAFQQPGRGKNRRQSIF

COc1cc2ncnc(N[C@H](C)c3cccc4ccccc34)c2cc1OC showed a deltaG [1] of -8.6 kcal/mol, an Activity [2] of 100% and an Activity [3] of 90%. The Activity [4] was 97% and the Activity [5] was 76%.
